Entries after “also recorded” stand apart in the source; their conditions may differ.
Assays:
[1] = molecular target: T1, GSPT1 (Homo sapiens, UniProt P15170+Q96SW2); experiment: Western blot of GSPT1 protein in SNU—C4 3xFLAG-PXR KI cells; format: cell-based; conditions: for GSPT1 Loss at 10 μM (% ± SD): 10 μM compound, calculated from western blots FIG. 9A; for GSPT1 degradation (in words): western blot, SNU—C4 3xFLAG-PXR KI cells
T1 construct: endogenous in cells
Description: (§1) The following day, DMSO or compounds were added to result in 0.5% DMSO and the indicated compound concentrations, and cells were incubated for the indicated time points. Cells were lysed and subjected to western blotting as above using antibodies against FLAG (Sigma-Aldrich, cat. #F3165, 1:2,000 dilution), GSPT1 (Abcam, cat. #ab126090, 1:4,000 dilution), and R-Actin (Cell Signaling Technology, cat. #4967, 1:2,000 dilution).

[2] = molecular target: T2, His-CRBN/DDB1 (Homo sapiens, UniProt Q96SW2); experiment: TR-FRET CRBN competitive binding assay (BODIPY FL thalidomide probe); conditions: for CRBN binding (in words): FIG. 9D; for EC50: TR-FRET competitive binding, derived from FIG. 9D, read-out: CRBN Binding EC50 ± SD
T2 construct: made in house; host or cells: Sf9 insect cells (baculovirus)
Description: The pFastBacDual-6xHis-CRBN/DDB1 plasmid was cloned by GenScript and used for baculoviral expression of His-CRBN and untagged DDB1. Protein was expressed and purified essentially as described previously. The bacmid was produced in MAX Efficiency DH10Bac Competent Cells (Thermo Fisher Scientific) according to the manufacturer's instructions. To generate the P1 virus, 1×10^6 Sf9 cells were plated in each well of a six-well plate in 2 mL Sf-900 III SFM and transfected with 7 μg bacmid using Cellfectin II reagent (Thermo Fisher Scientific). After 6 h at 27° C., the media was replaced with 2 mL fresh Sf-900 III SFM. After three days, the supernatant was collected, centrifuged at 500×g for 5 min to remove cells and debris, transferred to new tubes, and stored at 4° C. To generate P2 virus, 2 mL P1 virus was added to 1×10^8 Sf9 cells in 50 mL Sf-900 III SFM and shaken at 27° C. for three days. The supernatant was collected and clarified as above. For protein expression, 5 mL P2 virus was added to each liter of Sf cells (2×10^6 cells/mL) and shaken at 27° C. for three days. Cells containing expressed protein were pelleted by centrifugation at 500×g for 5 min, the supernatant was removed, and pellets were stored at −80° C. until processing. […] The suspension was incubated on ice for 1 h, gently sonicated, and centrifuged for 1 h at 40,000×g at 4° C. The supernatant was applied to Ni-NTA Superflow resin (QIAGEN) equilibrated with lysis buffer. The resin was washed with 10 column volumes (CV) of lysis buffer, and proteins were eluted with 10 CV lysis buffer containing 500 mM imidazole. The solution was diluted to 200 mM NaCl using lysis buffer without NaCl and applied to a HiTrap ANX FF (High Sub) column (Cytiva) equilibrated with ANX binding buffer [50 mM Tris (pH 7.5), 200 mM NaCl, 3 mM TCEP]. The column was washed with 10 CV ANX binding buffer followed by 10 CV ANX wash buffer [50 mM Bis-Tris (pH 6.0), 200 mM NaCl, 3 mM TCEP]. A 20 CV linear gradient was then immediately applied from ANX binding buffer to ANX binding buffer containing 1 M NaCl using an AKTA avant chromatography system (Cytiva). The purest fractions were applied to a HiLoad 26/600 Superdex 200 pg size exclusion column equilibrated with 10 mM HEPES (pH 7.0), 240 mM NaCl, and 3 mM TCEP. Pure protein was concentrated to 20-30 mg/mL in Pierce PES Protein Concentrators (Thermo Fisher Scientific), flash frozen in liquid nitrogen, and stored at −80° C.
The assay buffer composition was 50 mM Tris (pH 7.5), 0.1% Triton X-100, 0.01% bovine serum albumin, and 1 mM DTT. […] Lastly, 5 μL/well of 8 nM Tb-anti-His and 8 nM His-CRBN/DDB1 in assay buffer was added. […] The plates were then protected from light exposure and incubated for 60 minutes at room temperature (RT). After incubation, the TR-FRET signal from each well was collected with a PHERAstar FS Microplate Reader (BMG Labtech). The percent inhibition for each well was calculated using equation 2: […]

[3] = molecular target: T3, PXR (Homo sapiens, UniProt O75469); experiment: Western blot of endogenous 3xFLAG-PXR protein in SNU—C4 3xFLAG-PXR KI cells; format: cell-based; set-up: To assess SJPYT-195 activity against endogenous PXR, CRISPR-Cas9 was used; endogenous in cells; conditions: western blot, SNU—C4 3xFLAG-PXR KI cells
T3 sequence (O75469 1-434): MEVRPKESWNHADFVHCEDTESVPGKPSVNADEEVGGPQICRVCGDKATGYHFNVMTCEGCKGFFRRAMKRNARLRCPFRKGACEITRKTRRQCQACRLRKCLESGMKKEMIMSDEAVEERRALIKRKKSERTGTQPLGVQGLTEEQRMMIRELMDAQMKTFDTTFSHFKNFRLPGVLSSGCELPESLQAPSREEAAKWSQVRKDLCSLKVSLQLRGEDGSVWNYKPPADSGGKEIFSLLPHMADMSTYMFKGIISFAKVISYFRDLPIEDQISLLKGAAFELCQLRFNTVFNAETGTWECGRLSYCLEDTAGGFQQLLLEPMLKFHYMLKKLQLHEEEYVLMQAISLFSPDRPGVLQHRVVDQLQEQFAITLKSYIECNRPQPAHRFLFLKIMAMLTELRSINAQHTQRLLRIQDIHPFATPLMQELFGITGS
Description: as §1

[4] = molecular target: T3, PXR; experiment: cell-based hPXR antagonistic assay; conditions: for inhibition at 10 µM: read-out: Antagonist (% inhibition at 10 μM); for IC50: read-out: Antagonist (IC50/μM)
[5] = molecular target: T3, PXR; experiment: cell-based hPXR inverse agonistic assay; conditions: for inhibition at 10 µM: read-out: Inverse agonist (% inhibition at 10 μM); for IC50: read-out: Inverse agonist (IC50/μM)
[6] = molecular target: T3, PXR; experiment: hPXR binding assay; conditions: for inhibition at 10 µM: read-out: Binding (% inhibition at 10 μM)
[7] = molecular target: T3, PXR; experiment: cell-based hPXR agonistic assay; conditions: for Agonist (% activation at 10 μM): rifampicin at 10 μM as 100% activation, DMSO (0.3%) as 0%

Compound | GSPT1 Loss at 10 μM (% ± SD) [1] | GSPT1 degradation (in words) [1] | CRBN binding (in words) [2] | inhibition at 10 µM [5] | IC50 [5] | further results
CC(C)(C)c1cc(N)cc(Oc2cccc3c2C(=O)N(C2CCC(=O)NC2=O)C3=O)c1 (stereo not drawn) [Compound A1, 4-(3-amino-5-(tert-butyl)phenoxy)-2-(2,6-dioxopiperidin-3-yl)isoindoline-1,3-dione] | 23 ± 2.8% | lost the degradation activity of GSPT1 | maintained strong CRBN binding | – | – | –
CC(=O)Nc1cc(Nc2cccc3c2C(=O)N(C2CCC(=O)NC2=O)C3=O)cc(C(C)(C)C)c1 (stereo not drawn) [Compound A3, N-(3-(tert-butyl)-5-((2-(2,6-dioxopiperidin-3-yl)-1,3-dioxoisoindolin-4-yl)amino)phenyl)acetamide] | 15 ± 21% | – | – | – | – | GSPT1 degradation (in words) ([1]; listed as SJPYT-231): did not affect either PXR or GSPT1 levels; also recorded: lost the degradation activity of GSPT1; PXR protein level (in words) [3]: did not affect either PXR or GSPT1 levels; CRBN binding (in words) ([2]; listed as SJPYT-231): strongest CRBN binding of all tested compounds; also recorded: maintained strong CRBN binding; also recorded: higher affinity CRBN binder than thalidomide or pomalidomide
COc1ccc(OC)c(-n2nnc(C(=O)Nc3cc(OC(=O)CNc4cccc5c4C(=O)N(C4CCC(=O)NC4=O)C5=O)cc(C(C)(C)C)c3)c2C)c1 (stereo not drawn) [Compound M7, 3-(tert-butyl)-5-(1-(2,5-dimethoxyphenyl)-5-methyl-1H-1,2,3-triazole-4-carboxamido)phenyl (2-(2,6-dioxopiperidin-3-yl)-1,3-dioxoisoindolin-4-yl)glycinate] | 46 ± 1.5% | only weakly degraded GSPT1 | retained strong binding of CRBN | 103% | 0.2 ± 0.038 µM | inhibition at 10 µM [4]: 71%; IC50 [4]: 1.38 ± 0.47 µM
COc1ccc(OC)c(-n2nnc(C(=O)Nc3cc(NC(=O)CNc4cccc5c4C(=O)N(C4CCC(=O)NC4=O)C5=O)cc(C(C)(C)C)c3)c2C)c1 (stereo not drawn) [Compound M8, N-(3-(tert-butyl)-5-(2-((2-(2,6-dioxopiperidin-3-yl)-1,3-dioxoisoindolin-4-yl)amino)acetamido)phenyl)-1-(2,5-dimethoxyphenyl)-5-methyl-1H-1,2,3-triazole-4-carboxamide] | 89 ± 3.1% | strong GSPT1 degradation | retained strong binding of CRBN | 19% | 13.2 ± 1.28 µM | –
COc1ccc(OC)c(-n2nnc(C(=O)Nc3cc(OCC(=O)Nc4cccc5c4C(=O)N(C4CCC(=O)NC4=O)C5=O)cc(C(C)(C)C)c3)c2C)c1 (stereo not drawn) [Compound M9, N-(3-(tert-butyl)-5-(2-((2-(2,6-dioxopiperidin-3-yl)-1,3-dioxoisoindolin-4-yl)amino)-2-oxoethoxy)phenyl)-1-(2,5-dimethoxyphenyl)-5-methyl-1H-1,2,3-triazole-4-carboxamide] | 20 ± 4.8% | – | greatly reduced CRBN binding | – | – | EC50 [2]: > 333 nM
COc1ccc(OC)c(-n2nnc(C(=O)Nc3cc(OCCNc4cccc5c4C(=O)N(C4CCC(=O)NC4=O)C5=O)cc(C(C)(C)C)c3)c2C)c1 (stereo not drawn) [Compound M10, N-(3-(tert-butyl)-5-(2-((2-(2,6-dioxopiperidin-3-yl)-1,3-dioxoisoindolin-4-yl)amino)ethoxy)phenyl)-1-(2,5-dimethoxyphenyl)-5-methyl-1H-1,2,3-triazole-4-carboxamide] | 72 ± 2.3% | strong GSPT1 degradation | retained strong binding of CRBN | 128% | 0.042 ± 0.0085 µM | inhibition at 10 µM [4]: 102%; IC50 [4]: 0.23 ± 0.023 µM
COc1ccc(OC)c(-n2nnc(C(=O)Nc3cc(NCCNc4cccc5c4C(=O)N(C4CCC(=O)NC4=O)C5=O)cc(C(C)(C)C)c3)c2C)c1 (stereo not drawn) [Compound M11, N-(3-(tert-butyl)-5-((2-((2-(2,6-dioxopiperidin-3-yl)-1,3-dioxoisoindolin-4-yl)amino)ethyl)amino)phenyl)-1-(2,5-dimethoxyphenyl)-5-methyl-1H-1,2,3-triazole-4-carboxamide] | 63 ± 13% | strong GSPT1 degradation | retained strong binding of CRBN | 135% | 0.0079 µM | IC50 [6]: 0.67 ± 0.014 µM; inhibition at 10 µM [6]: 61%; inhibition at 10 µM [4]: 109%; IC50 [4]: 0.026 ± 0.0008 µM
COc1ccc(OC)c(-n2nnc(C(=O)Nc3cc(C(C)(C)C)ccc3OCCCCN3C(=O)CCC(N4Cc5c(N)cccc5C4=O)C3=O)c2C)c1 (stereo not drawn) [Compound N1, N-(2-(4-(3-(4-amino-1-oxoisoindolin-2-yl)-2,6-dioxopiperidin-1-yl)butoxy)-5-(tert-butyl)phenyl)-1-(2,5-dimethoxyphenyl)-5-methyl-1H-1,2,3-triazole-4-carboxamide] | – | – | – | – | – | IC50 [6]: 1.27 ± 0.48 µM; inhibition at 10 µM [6]: 34%; Agonist (% activation at 10 μM) [7]: (55 ± 5)%; EC50 ([7]; NA = no value within concentration range tested (highest 30 μM), read-out: Agonist (EC50/μM)): 0.75 ± 0.11 µM
COc1ccc(OC)c(-n2nnc(C(=O)Nc3cc(OCCCCCCCCN4C(=O)CCC(N5C(=O)c6cccc(N)c6C5=O)C4=O)cc(C(C)(C)C)c3)c2C)c1 (stereo not drawn) [Compound N5, N-(3-((8-(3-(4-amino-1,3-dioxoisoindolin-2-yl)-2,6-dioxopiperidin-1-yl)octyl)oxy)-5-(tert-butyl)phenyl)-1-(2,5-dimethoxyphenyl)-5-methyl-1H-1,2,3-triazole-4-carboxamide] | – | – | – | – | – | Agonist (% activation at 10 μM) [7]: (81 ± 5)%
CO[C@H]1/C=C/O[C@@]2(C)Oc3c(C)c(O)c4c(O)c(c(/C=N/N5CCN(C)CC5)c(O)c4c3C2=O)NC(=O)/C(C)=C\C=C\[C@H](C)[C@H](O)[C@@H](C)[C@@H](O)[C@@H](C)[C@H](OC(C)=O)[C@@H]1C [Rifampicin, reference compound] | – | – | – | – | – | Agonist (% activation at 10 μM) [7]: (100 ± 2)%
COc1ccc(OC)c(-n2nnc(S(=O)(=O)c3ccc(C(C)(C)C)cc3)c2C)c1 [SPA70, reference compound] | – | – | – | – | – | EC50 [2]: > 3000 nM

From patent publication US20260116867A1, “PROTEOLYSIS TARGETING CHIMERAS FOR HUMAN PREGNANE X RECEPTOR AND FOR DEGRADATION OF GSPT1” (ST. JUDE CHILDREN'S RESEARCH HOSPITAL, priority 2022, published 2026)
